Numbering of substitutions follows the chain as printed.

Assay in all cases: two-electrode voltage clamp, X. laevis oocytes
What all share (type): cell-based
In general terms: In two-electrode clamp one electrode senses voltage and the other passes current.

The target in assay [1] is T1, fTRPA1 (Xenopus tropicalis, UniProt A0A8J0QD66).
T1 construct: gene trpa1; full-length wild type (1144 residues); X. laevis oocytes (cRNA)
T1 sequence (A0A8J0QD66 1-1144): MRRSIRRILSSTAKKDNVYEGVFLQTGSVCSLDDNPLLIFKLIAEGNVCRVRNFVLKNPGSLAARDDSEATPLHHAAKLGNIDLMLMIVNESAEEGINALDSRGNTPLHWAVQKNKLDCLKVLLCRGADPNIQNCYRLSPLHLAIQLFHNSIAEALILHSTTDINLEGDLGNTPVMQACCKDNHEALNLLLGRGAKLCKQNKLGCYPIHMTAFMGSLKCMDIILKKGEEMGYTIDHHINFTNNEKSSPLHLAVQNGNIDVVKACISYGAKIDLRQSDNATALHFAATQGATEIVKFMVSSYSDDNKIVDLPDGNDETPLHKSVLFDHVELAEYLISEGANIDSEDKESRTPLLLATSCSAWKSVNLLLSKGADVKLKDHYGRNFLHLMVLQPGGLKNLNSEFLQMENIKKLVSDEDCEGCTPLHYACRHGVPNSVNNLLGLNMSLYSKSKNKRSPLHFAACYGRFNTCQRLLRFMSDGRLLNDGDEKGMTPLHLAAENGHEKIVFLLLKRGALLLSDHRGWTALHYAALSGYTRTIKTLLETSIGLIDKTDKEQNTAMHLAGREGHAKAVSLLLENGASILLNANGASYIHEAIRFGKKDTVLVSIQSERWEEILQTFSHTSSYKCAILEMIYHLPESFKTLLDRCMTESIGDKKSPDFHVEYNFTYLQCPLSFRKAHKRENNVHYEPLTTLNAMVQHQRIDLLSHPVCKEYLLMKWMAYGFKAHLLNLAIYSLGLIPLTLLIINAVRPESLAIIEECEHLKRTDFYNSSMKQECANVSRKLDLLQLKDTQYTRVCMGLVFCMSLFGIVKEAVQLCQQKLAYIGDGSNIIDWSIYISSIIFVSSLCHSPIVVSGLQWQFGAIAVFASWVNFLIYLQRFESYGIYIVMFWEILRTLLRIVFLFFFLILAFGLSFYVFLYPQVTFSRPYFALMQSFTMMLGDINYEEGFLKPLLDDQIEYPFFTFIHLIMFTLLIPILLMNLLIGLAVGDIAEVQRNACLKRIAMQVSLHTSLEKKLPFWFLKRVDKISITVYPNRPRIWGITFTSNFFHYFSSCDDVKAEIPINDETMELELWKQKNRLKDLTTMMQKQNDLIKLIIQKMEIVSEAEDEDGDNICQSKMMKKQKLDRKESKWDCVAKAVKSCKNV
The following applies: agonist.

In assay [2] the target is T2, hTRPA1 (Homo sapiens, UniProt O75762, N855S).
T2 construct: gene TRPA1; full-length wild type (1119 residues); X. laevis oocytes (cRNA) or HEK293T cells (pcDNA3.1)
To be noted: antagonist; vs 0.3 mM CA; pH 7.4, 1.8 mM CaCl2, -60 mV.

Assay [3] deals with T3, zTRPA1b (Danio rerio, UniProt A0A8M1N2Z4, R860N).
T3 construct: gene trpa1b; full-length; X. laevis oocytes (cRNA)
T3 sequence (A0A8M1N2Z4 1-1120 R860N): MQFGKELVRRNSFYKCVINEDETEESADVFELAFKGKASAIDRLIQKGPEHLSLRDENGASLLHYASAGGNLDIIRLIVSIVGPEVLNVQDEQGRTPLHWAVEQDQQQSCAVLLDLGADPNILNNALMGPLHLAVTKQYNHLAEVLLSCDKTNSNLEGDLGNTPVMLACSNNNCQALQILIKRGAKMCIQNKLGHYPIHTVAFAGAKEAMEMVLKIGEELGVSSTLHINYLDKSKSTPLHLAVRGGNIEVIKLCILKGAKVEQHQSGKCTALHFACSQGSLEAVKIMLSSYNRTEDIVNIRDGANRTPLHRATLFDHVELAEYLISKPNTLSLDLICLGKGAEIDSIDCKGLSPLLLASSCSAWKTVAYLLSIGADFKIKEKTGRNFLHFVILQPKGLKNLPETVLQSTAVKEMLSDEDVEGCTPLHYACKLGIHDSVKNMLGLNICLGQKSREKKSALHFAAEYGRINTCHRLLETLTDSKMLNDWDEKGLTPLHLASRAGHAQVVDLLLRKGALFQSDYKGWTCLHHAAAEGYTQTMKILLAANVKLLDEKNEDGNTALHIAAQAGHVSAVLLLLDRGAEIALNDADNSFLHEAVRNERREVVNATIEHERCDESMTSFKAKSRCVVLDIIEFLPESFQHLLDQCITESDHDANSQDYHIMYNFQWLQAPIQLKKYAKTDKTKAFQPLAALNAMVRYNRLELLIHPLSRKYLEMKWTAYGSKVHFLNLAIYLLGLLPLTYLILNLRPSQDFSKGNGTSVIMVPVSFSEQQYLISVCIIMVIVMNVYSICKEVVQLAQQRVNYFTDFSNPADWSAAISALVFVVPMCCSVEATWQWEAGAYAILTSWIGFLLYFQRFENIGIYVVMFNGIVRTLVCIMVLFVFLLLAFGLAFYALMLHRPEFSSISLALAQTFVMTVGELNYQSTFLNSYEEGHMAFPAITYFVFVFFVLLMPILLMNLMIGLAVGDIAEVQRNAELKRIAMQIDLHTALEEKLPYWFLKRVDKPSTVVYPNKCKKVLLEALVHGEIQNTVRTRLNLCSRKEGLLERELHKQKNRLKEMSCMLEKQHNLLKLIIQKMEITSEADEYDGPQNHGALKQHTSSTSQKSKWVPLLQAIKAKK
To be noted: antagonist; vs 1 mM CA; pH 7.4, 1.8 mM CaCl2, -60 mV.

Assay [4] deals with T4, fTRPA1 (Xenopus tropicalis, UniProt A0A8J0QD66, S880N).
T4 construct: gene trpa1; full-length wild type (1144 residues); X. laevis oocytes (cRNA)
T4 sequence (A0A8J0QD66 1-1144 S880N): T1 sequence (A0A8J0QD66 1-1144) with S880N
To be noted: antagonist; vs 0.5 mM CA; pH 7.4, 1.8 mM CaCl2, -60 mV.

The target of assay [5] is T5, hTRPA1 (Homo sapiens, UniProt O75762).
T5 construct: gene TRPA1; full-length wild type (1119 residues); X. laevis oocytes (cRNA) or HEK293T cells (pcDNA3.1)
The following applies: agonist, non-electrophilic; pH 7.4, -60 mV.

T5 sequence (O75762 whole entry): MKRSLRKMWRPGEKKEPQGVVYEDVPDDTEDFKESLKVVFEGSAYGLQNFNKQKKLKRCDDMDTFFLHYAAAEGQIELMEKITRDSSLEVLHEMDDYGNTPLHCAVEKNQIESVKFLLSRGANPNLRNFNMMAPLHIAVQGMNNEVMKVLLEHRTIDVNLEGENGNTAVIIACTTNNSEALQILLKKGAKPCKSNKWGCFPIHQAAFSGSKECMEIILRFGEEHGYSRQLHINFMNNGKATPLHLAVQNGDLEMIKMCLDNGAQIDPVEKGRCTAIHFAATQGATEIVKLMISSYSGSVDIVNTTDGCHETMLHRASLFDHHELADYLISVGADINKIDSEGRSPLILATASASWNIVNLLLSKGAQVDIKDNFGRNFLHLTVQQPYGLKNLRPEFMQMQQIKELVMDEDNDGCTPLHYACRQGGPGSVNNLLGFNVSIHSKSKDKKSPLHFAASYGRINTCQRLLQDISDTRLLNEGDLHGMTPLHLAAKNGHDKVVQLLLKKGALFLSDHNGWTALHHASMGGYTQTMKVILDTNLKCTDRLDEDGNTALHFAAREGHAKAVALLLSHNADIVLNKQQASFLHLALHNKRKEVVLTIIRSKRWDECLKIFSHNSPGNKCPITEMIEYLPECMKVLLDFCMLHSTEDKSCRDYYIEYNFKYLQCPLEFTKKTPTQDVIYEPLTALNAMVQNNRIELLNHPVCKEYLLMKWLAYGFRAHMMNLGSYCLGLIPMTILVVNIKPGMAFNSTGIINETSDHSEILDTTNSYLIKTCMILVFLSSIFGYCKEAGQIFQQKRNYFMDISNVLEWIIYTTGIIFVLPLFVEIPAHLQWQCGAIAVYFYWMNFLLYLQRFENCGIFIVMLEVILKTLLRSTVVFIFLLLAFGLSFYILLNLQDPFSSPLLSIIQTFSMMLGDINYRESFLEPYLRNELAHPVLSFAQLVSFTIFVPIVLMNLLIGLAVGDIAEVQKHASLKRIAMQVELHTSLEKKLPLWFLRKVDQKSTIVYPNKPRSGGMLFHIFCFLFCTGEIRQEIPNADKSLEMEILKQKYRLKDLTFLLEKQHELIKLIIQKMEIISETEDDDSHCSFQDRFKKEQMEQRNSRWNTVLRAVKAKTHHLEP
T2 sequence (O75762 whole entry N855S): as the sequence (O75762 whole entry) above, with N855S counted along it

Regarding `O=CC=Cc1ccccc1` [CA, cinnamaldehyde], the “two-electrode voltage clamp, X. laevis oocytes” value in assay [1] (0.5 mM, covalent, pH 7.4, 1.8 mM CaCl2, -60 mV) is reported as “TRPA1-mediated currents were activated by CA with approximately similar amplitude”.
As for `CC(C)c1ccc(NC(=O)Cn2cnc3c2c(=O)n(C)c(=O)n3C)cc1` [HC, HC-030031], the entries for the “inhibition at 50 μM” value in assay [2], in assay [3] and in assay [4] were “hTRPA1-N855S showed significantly less sensitivity to HC than wt-hTRPA1 at all concentrations examined”, “significant reduction in current amplitudes in zTRPA1-R860N although wt-zTRPA1b showed no inhibition” and “HC reduced the CA-evoked currents in the second application in fTRPA1-S880N”, respectively.
As for `Cc1ccc(C(C)C)cc1O` [carvacrol], the “two-electrode voltage clamp, X. laevis oocytes” value in assay [1] (non-electrophilic, pH 7.4, -60 mV) was “hTRPA1 and fTRPA1 currents activated by the non-electrophilic compound carvacrol”; in assay [5] it was “hTRPA1 and fTRPA1 currents activated by the non-electrophilic compound carvacrol”.

(Values after PMC5118716, “Structural basis of TRPA1 inhibition by HC-030031 utilizing species-specific differences” (Scientific Reports, 2016).)
